Species: Rattus norvegicus
Experiment: DrugMatrix - Regimen: Daily Repeat
Assay type: toxicity, organism-based, Sprague-Dawley
Design: regimen Daily Repeat, gender Male, age 6-8 weeks
Settings: in vivo, po, 0 mg/kg, route oral GAVAGE, dose level Control, […]; for ABSOLUTE BASOPHIL / ABSOLUTE EOSINOPHIL / ABSOLUTE LYMPHOCYTE / ABSOLUTE MONOCYTE / ABSOLUTE SEGMENTED NEUTROPHIL / BASOPHIL / EOSINOPHIL / ERYTHROCYTE COUNT / HEMATOCRIT / HEMOGLOBIN / LEUKOCYTE COUNT / LYMPHOCYTE / MEAN CORPUSCULAR HEMOGLOBIN / MEAN CORPUSCULAR HEMOGLOBIN CONCENTRATION / MONOCYTE / NEUTROPHIL / NUCLEATED RED BLOOD CELLS / PLATELET COUNT: tissue Blood
[1] = 72 h, tissue Plasma, time 3 day
[2] = 120 h, tissue Plasma, time 5 day

How did the “ABSOLUTE BASOPHIL” value (72 h, time 3 day) turn out when `CC(C)Cc1ccc(C(C)C(=O)O)cc1` (stereo not drawn) [IBUPROFEN] was run?
The value was 0 CELLS/uL.

And the “ABSOLUTE EOSINOPHIL” value (72 h, time 3 day)?
Its value is 0 CELLS/uL.

What about the “ABSOLUTE LYMPHOCYTE” value (72 h, time 3 day) of the same compound?
The value was 7601 CELLS/uL.

And the “ABSOLUTE MONOCYTE” value (72 h, time 3 day)?
Its value is 354.33 CELLS/uL.

And the “ABSOLUTE SEGMENTED NEUTROPHIL” value (72 h, time 3 day)?
Its value is 744.67 CELLS/uL.

What about the BASOPHIL (72 h, time 3 day) of the same compound?
The BASOPHIL was 0%.

What about the EOSINOPHIL (72 h, time 3 day) of the same compound?
The EOSINOPHIL was 0%.

And the “ERYTHROCYTE COUNT” value (72 h, time 3 day)?
The value was 5.03 x10E6/uL.

What about the HEMATOCRIT (72 h, time 3 day) of the same compound?
Its HEMATOCRIT is 33.7%.

And the HEMOGLOBIN (72 h, time 3 day)?
The HEMOGLOBIN was 13.43 G/DL.

And the “LEUKOCYTE COUNT” value (72 h, time 3 day)?
Its value is 8.7 x10E3/uL.

What about the LYMPHOCYTE (72 h, time 3 day) of the same compound?
The LYMPHOCYTE was 86.33%.

What about the “MEAN CORPUSCULAR HEMOGLOBIN” value (72 h, time 3 day) of the same compound?
Its value is 26.7 pg.

What about the “MEAN CORPUSCULAR HEMOGLOBIN CONCENTRATION” value (72 h, time 3 day) of the same compound?
The value was 39.83 G/DL.

And the MONOCYTE (72 h, time 3 day)?
Its MONOCYTE is 4.67%.

And the NEUTROPHIL (72 h, time 3 day)?
The NEUTROPHIL was 9%.

What about the “NUCLEATED RED BLOOD CELLS” value (72 h, time 3 day) of the same compound?
The value was 0 /100WBC.

And the “PLATELET COUNT” value (72 h, time 3 day)?
The value was 1151 x10E3/uL.

And the “ALANINE AMINOTRANSFERASE” value [1]?
The value was 97.67 u/L.

And the ALBUMIN [1]?
The ALBUMIN was 4.07 G/DL.

And the “ALKALINE PHOSPHATASE” value [1]?
Its value is 607.67 u/L.

And the “ASPARTATE AMINOTRANSFERASE” value [1]?
Its value is 101 u/L.

What about the “BLOOD UREA NITROGEN” value [1] of the same compound?
Its value is 13.33 mg/dL.

And the “CARBON DIOXIDE” value [1]?
The value was 36 mmol/L.

What about the CHLORIDE [1] of the same compound?
The CHLORIDE was 99.67 MEQ/L.

What about the CHOLESTEROL [1] of the same compound?
Its CHOLESTEROL is 75.67 mg/dL.

And the “CREATINE PHOSPHOKINASE” value [1]?
Its value is 279.67 u/L.

What about the CREATININE [1] of the same compound?
The CREATININE was 0.16 mg/dL.

What about the GLUCOSE [1] of the same compound?
The GLUCOSE was 164 mg/dL.

And the “LACTATE DEHYDROGENASE” value [1]?
Its value is 115 u/L.

What about the LIPASE [1] of the same compound?
The LIPASE was 12.67 u/L.

What about the PHOSPHORUS [1] of the same compound?
Its PHOSPHORUS is 8.77 mg/dL.

And the POTASSIUM [1]?
The POTASSIUM was 5.79 MEQ/L.

And the SODIUM [1]?
Its SODIUM is 142.83 MEQ/L.

And the “TOTAL BILIRUBIN” value [1]?
Its value is 0.27 mg/dL.

And the “TOTAL PROTEIN” value [1]?
The value was 5.8 G/DL.

What about the “URIC ACID” value [1] of the same compound?
The value was 0.67 mg/dL.

And the “ABSOLUTE BASOPHIL” value (120 h, time 5 day)?
Its value is 0 CELLS/uL.

What about the “ABSOLUTE EOSINOPHIL” value (120 h, time 5 day) of the same compound?
The value was 0 CELLS/uL.

What about the “ABSOLUTE LYMPHOCYTE” value (120 h, time 5 day) of the same compound?
Its value is 4426.33 CELLS/uL.

What about the “ABSOLUTE MONOCYTE” value (120 h, time 5 day) of the same compound?
Its value is 102.67 CELLS/uL.

What about the “ABSOLUTE SEGMENTED NEUTROPHIL” value (120 h, time 5 day) of the same compound?
The value was 337.67 CELLS/uL.

What about the BASOPHIL (120 h, time 5 day) of the same compound?
The BASOPHIL was 0%.

What about the EOSINOPHIL (120 h, time 5 day) of the same compound?
The EOSINOPHIL was 0%.

What about the “ERYTHROCYTE COUNT” value (120 h, time 5 day) of the same compound?
Its value is 5.31 x10E6/uL.

And the HEMATOCRIT (120 h, time 5 day)?
Its HEMATOCRIT is 32.5%.

And the HEMOGLOBIN (120 h, time 5 day)?
Its HEMOGLOBIN is 13.17 G/DL.

What about the “LEUKOCYTE COUNT” value (120 h, time 5 day) of the same compound?
Its value is 4.87 x10E3/uL.

And the LYMPHOCYTE (120 h, time 5 day)?
Its LYMPHOCYTE is 90.33%.

And the “MEAN CORPUSCULAR HEMOGLOBIN” value (120 h, time 5 day)?
Its value is 24.93 pg.

And the “MEAN CORPUSCULAR HEMOGLOBIN CONCENTRATION” value (120 h, time 5 day)?
Its value is 40.67 G/DL.

What about the MONOCYTE (120 h, time 5 day) of the same compound?
The MONOCYTE was 2.33%.

What about the NEUTROPHIL (120 h, time 5 day) of the same compound?
Its NEUTROPHIL is 7.33%.

What about the “NUCLEATED RED BLOOD CELLS” value (120 h, time 5 day) of the same compound?
The value was 0.33 /100WBC.

And the “PLATELET COUNT” value (120 h, time 5 day)?
Its value is 848.33 x10E3/uL.

What about the “ALANINE AMINOTRANSFERASE” value [2] of the same compound?
Its value is 59.67 u/L.

What about the ALBUMIN [2] of the same compound?
The ALBUMIN was 3.87 G/DL.

And the “ALKALINE PHOSPHATASE” value [2]?
Its value is 452 u/L.

What about the “ASPARTATE AMINOTRANSFERASE” value [2] of the same compound?
The value was 81.33 u/L.

What about the “BLOOD UREA NITROGEN” value [2] of the same compound?
The value was 13.67 mg/dL.

What about the “CARBON DIOXIDE” value [2] of the same compound?
The value was 26.33 mmol/L.

And the CHLORIDE [2]?
The CHLORIDE was 103.67 MEQ/L.

What about the CHOLESTEROL [2] of the same compound?
The CHOLESTEROL was 65.67 mg/dL.

What about the “CREATINE PHOSPHOKINASE” value [2] of the same compound?
Its value is 355.33 u/L.

What about the CREATININE [2] of the same compound?
The CREATININE was 0.14 mg/dL.

What about the GLUCOSE [2] of the same compound?
The GLUCOSE was 171.33 mg/dL.

What about the “LACTATE DEHYDROGENASE” value [2] of the same compound?
The value was 118 u/L.

And the LIPASE [2]?
The LIPASE was 11.33 u/L.

What about the PHOSPHORUS [2] of the same compound?
Its PHOSPHORUS is 11.13 mg/dL.

What about the POTASSIUM [2] of the same compound?
The POTASSIUM was 5.18 MEQ/L.

And the SODIUM [2]?
The SODIUM was 143.17 MEQ/L.

And the “TOTAL BILIRUBIN” value [2]?
Its value is 0.2 mg/dL.

What about the “TOTAL PROTEIN” value [2] of the same compound?
The value was 5.87 G/DL.
